Data: US9616003B2 (priority 2012, dated 2017)

Legend:
gingiva cells = test system: gingiva cells
Experimental: (§1) 12% stock solution is prepared from boric acid (12 g boric acid/100 ml distilled water). ½, ¼, ⅛, 1/16, 1/32, 1/64, 1/128 dilutions are prepared from this solution. All these processes are carried out in laminar flow cabin II. Solutions are sterilized by filters with a sieve size of 0.22 μm. The pH of the prepared boric acid solution must be 4.9.
(§2) The cytotoxicity of the obtained solution is tested by in vitro cell culture (in the gingiva and periodontal ligament cells) studies.

[1] = test system: periodontal ligament cells
Experimental: as §1, §2

[2] = 1/16 solution, namely 0.75% solution (nontoxic dosage), and further dilution
Experimental: as §2

[3] = test system: chronic periodontitis patients; conditions: boric acid 0.75%
[4] = prior art statement; cited from earlier work

| Structure (SMILES) | viability of the cells (gingiva cells) | viability of the cells [1] | antibacterial features [2] | clinical periodontal parameters ([3]; compared to normal saline (control) and chlorhexidine groups) | side effects ([3]; three-month follow up of enrolled patients) | toxicity in cellular level [4] |
| --- | --- | --- | --- | --- | --- | --- |
| OB(O)O [boric acid] | diminish the viability of the cells until a dilution of 1/16 | diminish the viability of the cells until a dilution of 1/16 | maintains its antibacterial features even if it is diluted more | better in clinical periodontal parameters compared to normal saline (control) and chlorhexidine groups | no side effects | – |
| [H]/N=C(\N/C(=N/[H])NCCCCCCNC(=N)NC(=N)Nc1ccc(Cl)cc1)Nc1ccc(Cl)cc1 [chlorhexidine] | – | – | – | – | – | toxic in cellular level |
